# Experimental data as given in patent publication US7902354B2, “Lapachone compounds and methods of use thereof” (ArQule, Inc., priority 2006, dated 2011).
# How the values were obtained:
# [1] = system: PACA-2 human pancreatic carcinoma cells; assay: MTS cell viability assay, PACA-2 human pancreatic carcinoma cells; type: cell-based; settings: PACA-2, 4 h compound incubation, MTS, read-out: IC50 Values, Cancerous Cells, Pancreas PACA-2
# [2] = system: NCM-460 normal colon epithelial cells; assay: MTS cell viability assay, NCM-460 normal colon epithelial cells; type: cell-based; settings: for IC50: Homo sapiens, NCM460, NCM-460, 4 h compound incubation, MTS, read-out: IC50 Values, Normal Cells, Colon NCM-460; for Fold Selectivity (NCM-460/DLD1): ratio of IC50 NCM-460 / DLD1
# E2F-1 = E2F-1 induction in HT-29 cells; type: cell-based, human
# Description: Another effect of the compounds of the present invention is the induction or elevation of activity (e.g. elevation of the level) of one or more checkpoint molecules (i.e., a member of the E2F family of transcription factors). Studies have shown that β-lapachone induces activation of E2F1 checkpoint pathway in nuclei of cancer cells but not in normal cells, resulting in the arrest of cancer cells in G1 and/or S phase. Several compounds of the present invention were effective in activating the E2F1 checkpoint pathway (e.g. elevation of E2F1 levels), thus causing G1 and/or S phase arrest. Furthermore, the compounds of the present invention have no significant toxic effects on normal cells (See. Table 1). The assays of the present invention as shown in Table 1 and methods of measuring induction of E2F1 activity and elevation of E2F1 levels can be carried out following the descriptions found in Li et al., (2003) Proc Natl Acad Sci USA. 100(5): 2674-8 and U.S. Patent Application Publication No. 2002/0169135, both incorporated herein by reference.
# [3] = system: K-562 human leukemia cells; assay: MTS cell viability assay, K-562 human leukemia cells; type: cell-based; settings: K562, K-562, 4 h compound incubation, MTS, read-out: IC50 Values, Cancerous Cells, Leukemia K-562
# [4] = system: DLD-1 human colon carcinoma cells; assay: MTS cell viability assay, DLD-1 human colon carcinoma cells; type: cell-based; settings: DLD-1, 4 h compound incubation, MTS, read-out: IC50 Values, Cancerous Cells, Colon DLD-1
# [5] = system: HT-29 human colon carcinoma cells; assay: MTS cell viability assay, HT-29 human colon carcinoma cells; type: cell-based; settings: 4 h compound incubation, read-out: IC50 Values, Cancerous Cells, Colon HT-29
# [6] = system: A549 human lung carcinoma cells; assay: MTS cell viability assay, A549 human lung carcinoma cells; type: cell-based; settings: A549, 4 h compound incubation, MTS, read-out: IC50 Values, Cancerous Cells, Lung A549
# [7] = system: DU-145 human prostate carcinoma cells; assay: MTS cell viability assay, DU-145 human prostate carcinoma cells; type: cell-based; settings: DU-145, 4 h compound incubation, MTS, read-out: IC50 Values, Cancerous Cells, Prostate DU-145
Structure (SMILES),IC50 [1] [µM],IC50 [3] [µM],IC50 [4] [µM],IC50 [5] [µM],IC50 [6] [µM],IC50 [7] [µM],IC50 [2] [µM],Fold Selectivity (NCM-460/DLD1) [2],E2F-1 Induction (HT-29) (E2F-1)
"O=C1C(=O)c2ccccc2C2=C1SCC1(CCN(C(=O)Oc3ccc(F)cc3)CC1)O2 [Compound 97, 4-fluorophenyl 5,6-dioxo-5,6-dihydro-1′H-spiro[naphtho[1,2-b][1,4]oxathiine-2,4′-piperidine]-1′-carboxylate]",4.93,4.28,4.39,12.6,26,6.59,13.3,3.0,YES
"O=C1C(=O)c2ccccc2C2=C1SCC1(CCN(Cc3c(F)cccc3Cl)CC1)O2 [Compound 129, 1′-(2-chloro-6-fluorobenzyl)spiro[naphtho[1,2-b][1,4]oxathiine-2,4′-piperidine]-5,6-dione]",4.12,4.44,3.98,7.05,66.9,6.75,16.5,4.1,Yes
"O=C1C(=O)c2ccccc2C2=C1SCC1(CCN(CC(O)Cc3ccccc3)CC1)O2 (stereo not drawn) [Compound 163, 1′-(2-hydroxy-3-phenylpropyl)spiro[naphtho[1,2-b][1,4]oxathiine-2,4′-piperidine]-5,6-dione]",0.764,1,0.714,4.48,4.31,1.38,2.84,4.0,Yes

# Further lines, with some results ahead:
IC50 [1] [µM],IC50 [3] [µM],IC50 [4] [µM],IC50 [5] [µM],IC50 [6] [µM],IC50 [7] [µM],Structure (SMILES),IC50 [2] [µM],Fold Selectivity (NCM-460/DLD1) [2],E2F-1 Induction (HT-29) (E2F-1)
0.909,1.32,0.734,3.11,4.93,1.52,"O=C1C(=O)c2ccccc2C2=C1SCC1(CCN(C[C@@H](O)COc3ccc(F)cc3)CC1)O2 [Compound 181, 1′-[(2R)-3-(4-fluorophenoxy)-2-hydroxypropyl]spiro[naphtho[1,2-b][1,4]oxathiine-2,4′-piperidine]-5,6-dione]",4.53,6.2,Yes
0.7,2.42,1.04,3.88,3.1,0.796,"O=C1C(=O)c2ccccc2C2=C1SCC1(CCN(C[C@@H](O)COc3ccc(Cl)cc3)CC1)O2 [Compound 183, 1′-[(2R)-3-(4-chlorophenoxy)-2-hydroxypropyl]spiro[naphtho[1,2-b][1,4]oxathiine-2,4′-piperidine]-5,6-dione]",10.2,9.8,Yes
1.37,4.46,3.38,2.47,7.42,1.01,"CC(C)(C)c1ccc(OC[C@H](O)CN2CCC3(CC2)CSC2=C(O3)c3ccccc3C(=O)C2=O)cc1 [Compound 185, 1′-[(2R)-3-(4-tert-butylphenoxy)-2-hydroxypropyl]spiro[naphtho[1,2-b][1,4]oxathiine-2,4′-piperidine]-5,6-dione]",13.7,4.1,YES
